Target: T1, MLLT1 (Homo sapiens, UniProt Q03111)
T1 construct: endogenous in cells; host or cells: MV4-11 (ATCC CRL-9591)
T1 sequence (Q03111 1-559): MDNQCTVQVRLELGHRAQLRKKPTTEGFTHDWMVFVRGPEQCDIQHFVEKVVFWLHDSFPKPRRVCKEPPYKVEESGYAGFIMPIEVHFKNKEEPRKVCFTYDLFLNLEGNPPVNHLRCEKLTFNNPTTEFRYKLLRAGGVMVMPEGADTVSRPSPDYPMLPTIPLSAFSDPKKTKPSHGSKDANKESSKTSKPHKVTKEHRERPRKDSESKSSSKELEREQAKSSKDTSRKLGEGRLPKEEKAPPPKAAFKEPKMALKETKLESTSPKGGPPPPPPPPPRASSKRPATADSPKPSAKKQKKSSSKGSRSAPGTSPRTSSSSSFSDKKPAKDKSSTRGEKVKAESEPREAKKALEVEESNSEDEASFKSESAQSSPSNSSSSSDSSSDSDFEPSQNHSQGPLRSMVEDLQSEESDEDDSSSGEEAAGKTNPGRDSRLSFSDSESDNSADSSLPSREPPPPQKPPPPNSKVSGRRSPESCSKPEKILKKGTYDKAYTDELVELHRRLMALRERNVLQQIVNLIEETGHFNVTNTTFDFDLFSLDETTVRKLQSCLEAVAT
Experiment: MLLT1 Degradation Assay (JESS automated chemiluminescent detection, MV4-11 cells)
Assay type: cell-based
Conditions: 24h, with respect to DMSO control; for MLLT1 % Degradation @ 0.01 µM: 0.01 µM (10 nM) test compound; for MLLT1 % Degradation @ 0.1 µM: 0.1 µM (100 nM) test compound; for MLLT 1 % Degradation @ 1 µM: 1 µM (1000 nM) test compound
In short: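 MV4-11 cells were treated for 24 h at 37 °C, 5% CO2 with compound at 1000, 100 and 10 nM (0.1% DMSO). MLLT1 was quantified by automated capillary chemiluminescent immunodetection (JESS). Band peak areas were expressed as % degradation relative to DMSO control.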

Row | Molecule | MLLT1 % Degradation @ 0.01 µM | MLLT1 % Degradation @ 0.1 µM | MLLT 1 % Degradation @ 1 µM
1 | CN1CCC[C@@H]1c1cc2cnc(NC(=O)c3ccc(-c4cnn(CCCC#Cc5cccc6c5CN(C5CCC(=O)NC5=O)C6=O)c4)cc3)cc2[nH]1 (stereo partly drawn) [Example 21, 4-(1-(5-(2-(2,6-dioxopiperidin-3-yl)-1-oxoisoindolin-4-yl)pent-4-yn-1-yl)-1H-pyrazol-4-yl)-N-(2-((R)-1-methylpyrrolidin-2-yl)-1H-pyrrolo[3,2-c]pyridin-6-yl)benzamide] | A (Category A: A ≥ 75% degradation) | A (Category A: A ≥ 75% degradation) | B (Category B: 50% ≤ B < 75% degradation)
2 | CN1CCC[C@@H]1c1cc2cnc(NC(=O)c3cccc(OCCCCCCCC#Cc4cccc5c4C(=O)N(C4CCC(=O)NC4=O)C5=O)c3)cc2[nH]1 (stereo partly drawn) [Example 26, 3-((9-(2-(2,6-dioxopiperidin-3-yl)-1,3-dioxoisoindolin-4-yl)non-8-yn-1-yl)oxy)-N-(2-((R)-1-methylpyrrolidin-2-yl)-1H-pyrrolo[3,2-c]pyridin-6-yl)benzamide] | D (Category D: D < 25% degradation) | D (Category D: D < 25% degradation) | C (Category C: 25% ≤ C < 50% degradation)
3 | 3-(1-(3-(1-(2-(2,6-dioxopiperidin-3-yl)-1,3-dioxoisoindolin-4-yl)piperidin-4-yl)propyl)-1H-pyrazol-4-yl)-N-(2-((R)-1-methylpyrrolidin-2-yl)-1H-pyrrolo[3,2-c]pyridin-6-yl)benzamide [Example 47] | C (Category C: 25% ≤ C < 50% degradation) | B (Category B: 50% ≤ B < 75% degradation) | A (Category A: A ≥ 75% degradation)
4 | CN1CCC[C@@H]1c1cc2cnc(NC(=O)c3ccc(CCCCC#Cc4cccc5c4CN(C4CCC(=O)NC4=O)C5=O)cc3)cc2[nH]1 (stereo partly drawn) [Example 8, 4-(6-(2-(2,6-dioxopiperidin-3-yl)-1-oxoisoindolin-4-yl)hex-5-yn-1-yl)-N-(2-((R)-1-methylpyrrolidin-2-yl)-1H-pyrrolo[3,2-c]pyridin-6-yl)benzamide] | A (Category A: A ≥ 75% degradation) | A (Category A: A ≥ 75% degradation) | A (Category A: A ≥ 75% degradation)
5 | CN1CCC[C@@H]1c1cc2cnc(NC(=O)CCCC3CCCN(c4cccc5c4C(=O)N(C4CCC(=O)NC4=O)C5=O)C3)cc2[nH]1 (stereo partly drawn) [Example 44, 4-(1-(2-(2,6-dioxopiperidin-3-yl)-1,3-dioxoisoindolin-4-yl)piperidin-3-yl)-N-(2-((R)-1-methylpyrrolidin-2-yl)-1H-pyrrolo[3,2-c]pyridin-6-yl)butanamide] | – | C (Category C: 25% ≤ C < 50% degradation) | C (Category C: 25% ≤ C < 50% degradation)
6 | CN1CCC[C@@H]1c1cc2cnc(NC(=O)c3ccc(OCC#Cc4cccc5c4CN(C4CCC(=O)NC4=O)C5=O)nc3)cc2[nH]1 (stereo partly drawn) [Example 2, 6-((3-(2-(2,6-dioxopiperidin-3-yl)-1-oxoisoindolin-4-yl)prop-2-yn-1-yl)oxy)-N-(2-((R)-1-methylpyrrolidin-2-yl)-1H-pyrrolo[3,2-c]pyridin-6-yl)nicotinamide] | A (Category A: A ≥ 75% degradation) | A (Category A: A ≥ 75% degradation) | A (Category A: A ≥ 75% degradation)
7 | CN1CCC[C@@H]1c1cc2cnc(NC(=O)c3ccc(OCCC#Cc4cccc5c4CN(C4CCC(=O)NC4=O)C5=O)cc3)cc2[nH]1 (stereo partly drawn) [Example 19, 4-((4-(2-(2,6-dioxopiperidin-3-yl)-1-oxoisoindolin-4-yl)but-3-yn-1-yl)oxy)-N-(2-((R)-1-methylpyrrolidin-2-yl)-1H-pyrrolo[3,2-c]pyridin-6-yl)benzamide] | B (Category B: 50% ≤ B < 75% degradation) | A (Category A: A ≥ 75% degradation) | A (Category A: A ≥ 75% degradation)
8 | CN1CCC[C@@H]1c1cc2cnc(NC(=O)c3ccc(N4CCC(N5CCN(c6cccc7c6C(=O)N(C6CCC(=O)NC6=O)C7=O)CC5)CC4)nc3)cc2[nH]1 (stereo partly drawn) [Example 64, 6-(4-(4-(2-(2,6-dioxopiperidin-3-yl)-1,3-dioxoisoindolin-4-yl)piperazin-1-yl)piperidin-1-yl)-N-(2-((R)-1-methylpyrrolidin-2-yl)-1H-pyrrolo[3,2-c]pyridin-6-yl)nicotinamide] | B (Category B: 50% ≤ B < 75% degradation) | B (Category B: 50% ≤ B < 75% degradation) | A (Category A: A ≥ 75% degradation)

Second part, led by results:

Row | MLLT1 % Degradation @ 0.01 µM | MLLT1 % Degradation @ 0.1 µM | Molecule | MLLT 1 % Degradation @ 1 µM
9 | – | A (Category A: A ≥ 75% degradation) | CN1CCC[C@@H]1c1cc2cnc(NC(=O)CCCCCC3CCN(c4cccc5c4C(=O)N(C4CCC(=O)NC4=O)C5=O)CC3)cc2[nH]1 (stereo partly drawn) [Example 43, 6-(1-(2-(2,6-dioxopiperidin-3-yl)-1,3-dioxoisoindolin-4-yl)piperidin-4-yl)-N-(2-((R)-1-methylpyrrolidin-2-yl)-1H-pyrrolo[3,2-c]pyridin-6-yl)hexanamide] | B (Category B: 50% ≤ B < 75% degradation)
10 | A (Category A: A ≥ 75% degradation) | A (Category A: A ≥ 75% degradation) | CN1CCC[C@@H]1c1cc2cnc(NC(=O)c3ccc(-c4cnn(CCCCC#Cc5cccc6c5CN(C5CCC(=O)NC5=O)C6=O)c4)cc3)cc2[nH]1 (stereo partly drawn) [Example 59, 4-(1-(6-(2-(2,6-dioxopiperidin-3-yl)-1-oxoisoindolin-4-yl)hex-5-yn-1-yl)-1H-pyrazol-4-yl)-N-(2-((R)-1-methylpyrrolidin-2-yl)-1H-pyrrolo[3,2-c]pyridin-6-yl)benzamide] | B (Category B: 50% ≤ B < 75% degradation)
11 | A (Category A: A ≥ 75% degradation) | A (Category A: A ≥ 75% degradation) | CN1CCC[C@@H]1c1cc2cnc(NC(=O)c3cccc(CCCNc4cccc5c4C(=O)N(C4CCC(=O)NC4=O)C5=O)c3)cc2[nH]1 (stereo partly drawn) [Example 45, 3-(3-((2-(2,6-dioxopiperidin-3-yl)-1,3-dioxoisoindolin-4-yl)amino)propyl)-N-(2-((R)-1-methylpyrrolidin-2-yl)-1H-pyrrolo[3,2-c]pyridin-6-yl)benzamide] | A (Category A: A ≥ 75% degradation)
12 | A (Category A: A ≥ 75% degradation) | A (Category A: A ≥ 75% degradation) | CN1CCC[C@@H]1c1cc2cnc(NC(=O)c3ccc(-c4cnn(CCCC5CCN(c6cccc(C(=O)N[C@H]7CCC(=O)NC7=O)n6)CC5)c4)cc3)cc2[nH]1 [Example 60, N-((S)-2,6-dioxopiperidin-3-yl)-6-(4-(3-(4-(4-((2-((R)-1-methylpyrrolidin-2-yl)-1H-pyrrolo[3,2-c]pyridin-6-yl)carbamoyl)phenyl)-1H-pyrazol-1-yl)propyl)piperidin-1-yl)picolinamide] | A (Category A: A ≥ 75% degradation)
13 | A (Category A: A ≥ 75% degradation) | A (Category A: A ≥ 75% degradation) | CN1CCC[C@@H]1c1cc2cnc(NC(=O)c3ccc(OCC#Cc4cccc5c4n(C)c(=O)n5C4CCC(=O)NC4=O)cc3)cc2[nH]1 (stereo partly drawn) [Example 66, 4-((3-(1-(2,6-dioxopiperidin-3-yl)-3-methyl-2-oxo-2,3-dihydro-1H-benzo[d]imidazol-4-yl)prop-2-yn-1-yl)oxy)-N-(2-((R)-1-methylpyrrolidin-2-yl)-1H-pyrrolo[3,2-c]pyridin-6-yl)benzamide] | A (Category A: A ≥ 75% degradation)
14 | A (Category A: A ≥ 75% degradation) | A (Category A: A ≥ 75% degradation) | CN1CCC[C@@H]1c1cc2cnc(NC(=O)c3ccc(-c4cnn(CCOC5CCN(c6cccc(C(=O)N[C@H]7CCC(=O)NC7=O)n6)CC5)c4)cc3)cc2[nH]1 [Example 61, N-((S)-2,6-dioxopiperidin-3-yl)-6-(4-(2-(4-(4-((2-((R)-1-methylpyrrolidin-2-yl)-1H-pyrrolo[3,2-c]pyridin-6-yl)carbamoyl)phenyl)-1H-pyrazol-1-yl)ethoxy)piperidin-1-yl)picolinamide] | B (Category B: 50% ≤ B < 75% degradation)
15 | A (Category A: A ≥ 75% degradation) | A (Category A: A ≥ 75% degradation) | CN1CCC[C@@H]1c1cc2cnc(NC(=O)c3ccc(CCC#Cc4cccc5c4CN(C4CCC(=O)NC4=O)C5=O)cc3F)cc2[nH]1 (stereo partly drawn) [Example 54, 4-(4-(2-(2,6-dioxopiperidin-3-yl)-1-oxoisoindolin-4-yl)but-3-yn-1-yl)-2-fluoro-N-(2-((R)-1-methylpyrrolidin-2-yl)-1H-pyrrolo [3,2-c]pyridin-6-yl) benzamide] | B (Category B: 50% ≤ B < 75% degradation)
